Reference: patent publication US12522594B2, “2-heteroaryl-3-oxo-2,3-dihydropyridazine-4-carboxamides for the treatment of cancer” (Deutsches Krebsforschungszentrum, priority 2017, dated 2026)

Columns and labels:
[1] = target: T1, AHR (Homo sapiens, UniProt P35869); assay: In vitro assay 1: antagonism in human cell line (transactivation assay, U87 cells prestimulated with kynurenic acid, DRE firefly luciferase reporter); assay type: cell-based; parameters: host or cells: U87 glioblastoma cells, stably transfected with DRE firefly luciferase and renilla reporter constructs; conditions: 150 uM kynurenic acid, 20 hours, read-out: Assay 1: AHR-luc Hum Antagonism IC50
T1 sequence (P35869 11-848): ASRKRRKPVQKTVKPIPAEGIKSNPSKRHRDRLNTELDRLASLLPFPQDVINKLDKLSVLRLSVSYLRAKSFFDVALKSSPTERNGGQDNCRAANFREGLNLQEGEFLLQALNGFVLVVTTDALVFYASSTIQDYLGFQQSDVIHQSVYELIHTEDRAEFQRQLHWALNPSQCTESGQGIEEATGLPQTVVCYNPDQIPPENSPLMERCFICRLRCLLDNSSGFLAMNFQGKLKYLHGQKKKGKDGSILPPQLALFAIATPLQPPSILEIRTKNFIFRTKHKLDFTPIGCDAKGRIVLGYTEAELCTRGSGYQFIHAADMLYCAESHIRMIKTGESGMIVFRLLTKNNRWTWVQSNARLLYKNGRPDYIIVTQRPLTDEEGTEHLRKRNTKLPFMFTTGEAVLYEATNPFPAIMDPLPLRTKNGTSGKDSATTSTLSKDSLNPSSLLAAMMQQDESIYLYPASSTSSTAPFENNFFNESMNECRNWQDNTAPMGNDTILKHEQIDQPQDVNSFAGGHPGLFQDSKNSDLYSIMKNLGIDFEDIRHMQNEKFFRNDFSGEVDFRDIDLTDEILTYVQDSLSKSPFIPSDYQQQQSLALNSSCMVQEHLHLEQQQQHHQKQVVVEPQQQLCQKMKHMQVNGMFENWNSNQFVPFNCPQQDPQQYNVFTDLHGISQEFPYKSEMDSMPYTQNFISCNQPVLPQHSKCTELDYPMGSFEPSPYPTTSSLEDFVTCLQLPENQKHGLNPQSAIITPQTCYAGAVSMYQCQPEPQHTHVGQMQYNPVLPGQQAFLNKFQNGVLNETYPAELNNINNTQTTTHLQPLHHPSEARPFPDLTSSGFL
Outline: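 U87 glioblastoma cells with endogenous AHR, stably carrying a DRE-driven firefly luciferase reporter and a constitutive renilla reporter. Cells prestimulated with the AHR agonist kynurenic acid before compound addition; data normalized to positive and negative controls.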

[2] = target: T1, AHR; assay: In vitro assay 2: agonism in human cell line (transactivation assay, U87 cells, DRE firefly luciferase reporter); assay type: cell-based; parameters: host or cells: U87 glioblastoma cells, stably transfected with DRE firefly luciferase and renilla reporter constructs; conditions: no kynurenic acid, 20 hours, read-out: Assay 2: AHR-luc Hum Agonism IC50
Outline: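 U87 glioblastoma cells with endogenous AHR, stably carrying DRE-driven firefly luciferase and constitutive renilla reporters. 300 uM kynurenic acid served as positive activation control; data normalized to positive and negative controls.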

SMILES	IC50 [1]	IC50 [2]
C[C@@H](CO)NC(=O)c1cc(-c2ccc(Cl)cc2)nn(-c2cnn(C3CCC3)c2)c1=O [Example 42, 6-(4-Chlorophenyl)-2-(1-cyclobutyl-1H-pyrazol-4-yl)-N-[(2S)-1-hydroxypropan-2-yl]-3-oxo-2,3-dihydropyridazine-4-carboxamide]	1570 nM	> 20000 nM
Cn1cc(-n2nc(-c3ccc(Cl)cc3)cc(C(=O)N[C@H]3CCCC[C@H]3O)c2=O)cn1 [Example 48, 6-(4-Chlorophenyl)-N-[(1S,2R)-2-hydroxycyclohexyl]-2-(1-methyl-1H-pyrazol-4-yl)-3-oxo-2,3-dihydropyridazine-4-carboxamide]	2.49 nM	> 20000 nM
Cn1cc(-n2nc(-c3ccc(C(F)F)nc3)cc(C(=O)N[C@H]3CCCC[C@H]3O)c2=O)cn1 [Example 54, 6-[6-(Difluoromethyl)pyridin-3-yl]-N-[(1S,2R)-2-hydroxycyclohexyl]-2-(1-methyl-1H-pyrazol-4-yl)-3-oxo-2,3-dihydropyridazine-4-carboxamide]	14.3 nM	> 20000 nM
Cn1cc(-n2nc(-c3ccc(OC(F)(F)F)cc3)cc(C(=O)NCC(C)(C)O)c2=O)cn1 [Example 59, N-(2-Hydroxy-2-methylpropyl)-2-(1-methyl-1H-pyrazol-4-yl)-3-oxo-6-[4-(trifluoromethoxy)phenyl]-2,3-dihydropyridazine-4-carboxamide]	20 nM	> 20000 nM
C[C@@H](CO)NC(=O)c1cc(-c2ccc(C(F)F)nc2)nn(-c2cnn(C)c2)c1=O [Example 66, 6-[6-(Difluoromethyl)pyridin-3-yl]-N-[(2S)-1-hydroxypropan-2-yl]-2-(1-methyl-1H-pyrazol-4-yl)-3-oxo-2,3-dihydropyridazine-4-carboxamide]	259 nM	> 20000 nM
Cn1cc(-n2nc(-c3ccc(C(F)(F)F)cc3)cc(C(=O)NCC(C)(C)O)c2=O)cn1 [Example 67, N-(2-Hydroxy-2-methylpropyl)-2-(1-methyl-1H-pyrazol-4-yl)-3-oxo-6-[4-(trifluoromethyl)phenyl]-2,3-dihydropyridazine-4-carboxamide]	4.3 nM	> 20000 nM
O=C(NC(CO)CO)c1cc(-c2ccc(Cl)cc2)nn(-c2cccnc2)c1=O [Example 70, 6-(4-Chlorophenyl)-N-(1,3-dihydroxypropan-2-yl)-3-oxo-2-(pyridin-3-yl)-2,3-dihydropyridazine-4-carboxamide]	159 nM	> 20000 nM
COC[C@H](CO)NC(=O)c1cc(-c2ccc(Cl)cc2)nn(-c2cccnc2)c1=O [Example 74, (+)-6-(4-Chlorophenyl)-N-[(2S)-1-hydroxy-3-methoxypropan-2-yl]-3-oxo-2-(pyridin-3-yl)-2,3-dihydropyridazine-4-carboxamide]	152 nM	> 20000 nM
COC[C@@H](CO)NC(=O)c1cc(-c2ccc(Cl)cc2)nn(-c2cccnc2)c1=O [Example 75, (−)-6-(4-Chlorophenyl)-N-[(2R)-1-hydroxy-3-methoxypropan-2-yl]-3-oxo-2-(pyridin-3-yl)-2,3-dihydropyridazine-4-carboxamide]	83.4 nM	> 20000 nM
C[C@H](CO)NC(=O)c1cc(-c2ccc(Cl)cc2)nn(-c2cncc(F)c2)c1=O [Example 81, 6-(4-Chlorophenyl)-2-(5-fluoropyridin-3-yl)-N-[(2R)-1-hydroxypropan-2-yl]-3-oxo-2,3-dihydropyridazine-4-carboxamide]	106 nM	> 20000 nM
CC(C)[C@@H](CO)NC(=O)c1cc(-c2ccc(Cl)cc2)nn(-c2cncc(F)c2)c1=O [Example 83, 6-(4-Chlorophenyl)-2-(5-fluoropyridin-3-yl)-N-[(2S)-1-hydroxy-3-methylbutan-2-yl]-3-oxo-2,3-dihydropyridazine-4-carboxamide]	4.61 nM	> 20000 nM
O=C(NC(CO)CO)c1cc(-c2ccc(Cl)cc2)nn(-c2cncc(F)c2)c1=O [Example 84, 6-(4-Chlorophenyl)-N-(1,3-dihydroxypropan-2-yl)-2-(5-fluoropyridin-3-yl)-3-oxo-2,3-dihydropyridazine-4-carboxamide]	163 nM	> 20000 nM
COC[C@@H](CO)NC(=O)c1cc(-c2ccc(Cl)cc2)nn(-c2cncc(F)c2)c1=O [Example 85, 6-(4-Chlorophenyl)-2-(5-fluoropyridin-3-yl)-N-[(2R)-1-hydroxy-3-methoxypropan-2-yl]-3-oxo-2,3-dihydropyridazine-4-carboxamide]	36 nM	> 20000 nM
COC[C@H](CO)NC(=O)c1cc(-c2ccc(Cl)cc2)nn(-c2cncc(F)c2)c1=O [Example 86, 6-(4-Chlorophenyl)-2-(5-fluoropyridin-3-yl)-N-[(2S)-1-hydroxy-3-methoxypropan-2-yl]-3-oxo-2,3-dihydropyridazine-4-carboxamide]	55.9 nM	> 20000 nM
O=C(N[C@@H](CO)C(F)(F)F)c1cc(-c2ccc(Cl)cc2)nn(-c2cccnc2)c1=O [Example 95, (−)-6-(4-Chlorophenyl)-3-oxo-2-(pyridin-3-yl)-N-[(2S)-1,1,1-trifluoro-3-hydroxypropan-2-yl]-2,3-dihydropyridazine-4-carboxamide]	62.3 nM	> 20000 nM

Other lines, results leading:

IC50 [1]	IC50 [2]	SMILES
251 nM	> 20000 nM	O=C(NC[C@@H](O)CO)c1cc(-c2ccc(Cl)cc2)nn(-c2cncc(F)c2)c1=O [Example 98, 6-(4-Chlorophenyl)-N-[(2R)-2,3-dihydroxypropyl]-2-(5-fluoropyridin-3-yl)-3-oxo-2,3-dihydropyridazine-4-carboxamide]
129 nM	> 20000 nM	O=C(NC[C@H](O)CO)c1cc(-c2ccc(Cl)cc2)nn(-c2cncc(F)c2)c1=O [Example 99, 6-(4-Chlorophenyl)-N-[(2S)-2,3-dihydroxypropyl]-2-(5-fluoropyridin-3-yl)-3-oxo-2,3-dihydropyridazine-4-carboxamide]
12.7 nM	> 20000 nM	O=C(N[C@H](CO)C(F)(F)F)c1cc(-c2ccc(Cl)cc2)nn(-c2cncc(F)c2)c1=O [Example 100, 6-(4-Chlorophenyl)-2-(5-fluoropyridin-3-yl)-3-oxo-N-[(2R)-1,1,1-trifluoro-3-hydroxypropan-2-yl]-2,3-dihydropyridazine-4-carboxamide]
26.5 nM	> 20000 nM	COC[C@H](CO)NC(=O)c1cc(-c2ccc(C(F)(F)F)cc2)nn(-c2cccnc2)c1=O [Example 111, N-[(2S)-1-Hydroxy-3-methoxypropan-2-yl]-3-oxo-2-(pyridin-3-yl)-6-[4-(trifluoromethyl)phenyl]-2,3-dihydropyridazine-4-carboxamide]
85.5 nM	> 20000 nM	O=C(NC[C@H](O)CO)c1cc(-c2ccc(C(F)(F)F)cc2)nn(-c2cccnc2)c1=O [Example 114, N-[(2S)-2,3-Dihydroxypropyl]-3-oxo-2-(pyridin-3-yl)-6-[4-(trifluoromethyl)phenyl]-2,3-dihydropyridazine-4-carboxamide]
115 nM	> 20000 nM	O=C(NC(CO)CO)c1cc(-c2ccc(C(F)(F)F)cc2)nn(-c2cccnc2)c1=O [Example 116, N-(1,3-Dihydroxypropan-2-yl)-3-oxo-2-(pyridin-3-yl)-6-[4-(trifluoromethyl)phenyl]-2,3-dihydropyridazine-4-carboxamide]
67.9 nM	> 20000 nM	C[C@@H](CO)NC(=O)c1cc(-c2ccc(Cl)cc2)nn(-c2cncnc2)c1=O [Example 120, 6-(4-Chlorophenyl)-N-[(2S)-1-hydroxypropan-2-yl]-3-oxo-2-(pyrimidin-5-yl)-2,3-dihydropyridazine-4-carboxamide]
2.54 nM	> 20000 nM	CC(C)(O)C(NC(=O)c1cc(-c2ccc(Cl)cc2)nn(-c2cccnc2)c1=O)C(F)(F)F (stereo not drawn) [Example 121, 6-(4-Chlorophenyl)-3-oxo-2-(pyridin-3-yl)-N-(1,1,1-trifluoro-3-hydroxy-3-methylbutan-2-yl)-2,3-dihydropyridazine-4-carboxamide]
3.64 nM	> 20000 nM	O=C(N[C@H]1CCCC[C@H]1O)c1cc(-c2ccc(Cl)cc2)nn(-c2cncc(F)c2)c1=O [Example 124, 6-(4-Chlorophenyl)-2-(5-fluoropyridin-3-yl)-N-[(1S,2R)-2-hydroxycyclohexyl]-3-oxo-2,3-dihydropyridazine-4-carboxamide]
